In publication PMC4729491, “The Cellular Thioredoxin-1/Thioredoxin Reductase-1 Driven Oxidoreduction Represents a Chemotherapeutic Target for HIV-1 Entry Inhibition” (PLoS ONE, 2016):

Assays:
TrxR1 = molecular target: T1, TrxR1 (Homo sapiens, UniProt Q16881); assay: Inhibition of TrxR1-dependent reduction of HIV-1 gp120 (ELISA); assay type: biochemical; conditions: 100 μM compound; 1 μM Trx1 + 100 nM TrxR1 + 240 μM NADPH; control without compound 38–54%
T1 construct: purchased IMCO Corporation (Stockholm, Sweden) or Sino Biological Inc (Zoersel, Belgium)
T1 sequence (Q16881 1-499 isoform Q16881-5): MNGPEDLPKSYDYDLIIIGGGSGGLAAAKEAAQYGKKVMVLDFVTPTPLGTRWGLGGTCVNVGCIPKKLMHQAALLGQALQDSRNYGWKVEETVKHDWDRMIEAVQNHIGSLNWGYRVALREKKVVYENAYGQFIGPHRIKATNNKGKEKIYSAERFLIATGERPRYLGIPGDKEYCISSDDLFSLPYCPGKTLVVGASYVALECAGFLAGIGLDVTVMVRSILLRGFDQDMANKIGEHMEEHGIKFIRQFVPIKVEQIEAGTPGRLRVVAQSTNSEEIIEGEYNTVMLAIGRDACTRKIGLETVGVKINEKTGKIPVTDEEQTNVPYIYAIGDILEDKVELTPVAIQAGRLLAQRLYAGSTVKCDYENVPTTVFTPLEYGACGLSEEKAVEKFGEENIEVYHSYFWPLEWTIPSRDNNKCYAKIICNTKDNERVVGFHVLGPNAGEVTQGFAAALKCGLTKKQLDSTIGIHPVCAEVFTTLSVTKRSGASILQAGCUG
Description: After coating 96-well Maxi-Sorp ELISA plates (Nunc Inc, Roskilde, Denmark) with 100 μl gp120 in PBS (2 μg/ml), these were blocked with PBST (phosphate buffered saline, pH 7.4 with 0.05% Tween 20) as described before). The experiment was performed with two different set-ups for each compound, but each reaction mixture contained 1 μM Trx1 + 100 nM TrxR1 + 240 μM NADPH + 100 μM of the compounds, with auranofin as an inhibition control. In the first set-up (TrxR1 + Trx1), the reaction mixtures were pre-incubated for 15 min at 37°C in the absence of the compounds, which were added after the preincubation period. In the second set-up (TrxR1 + compounds), the reaction mixtures were exposed to the different compounds, but in the absence of Trx1, which was added after the 15 min pre-incubation period. The reaction mixtures were then added to the gp120-coated wells to allow the reduction of gp120, incubated for 15 min at 37°C and then washed four times with PBST to remove any unbound material. Subsequently, the wells were incubated with 2 μM biotin-maleimide for 30 min at room temperature, then washed and incubated with steptavidine-ALP (diluted 1:1000) at room temperature. […] The absorbance at 405 nm was measured using a microplate reader (Wallac Perkin-Elmer).

[1] = test system: HuT-78/HIV-1 and Sup-T1 cells; assay: cells; assay type: cell-based; conditions: cocultures of HuT-78/HIV-1(IIIB) and Sup-T1 cells; data not shown
Description: Persistently infected HuT-78/HIV-1 cells were thoroughly washed to eliminate free virions. Next, 1 x 10^5 HuT-78/HIV-1 cells were co-cultivated with 1 x 10^5 Sup-T1 cells in 96-well plates (200 μl/well) during 20 h at 37°C, in the presence or absence of a serial dilution of compound. Afterwards, the formation of syncytia was evaluated microscopically. The EC50 was defined as the compound concentration required to suppress syncytia formation by 50%.

HIV = test system: HIV; set-up: method as in PMID 8895167; conditions: cited from earlier work
[2] = molecular target: T2, HIV-1 reverse transcriptase (Human immunodeficiency virus type 1 group M subtype B, UniProt P04585); assay: Reverse transcriptase inhibition (Lenti RT Activity kit); assay type: biochemical; conditions: 25 μM; poly-A template, overnight
Description: The ability of the compounds to inhibit the activity of viral RT was determined by a Lenti RT Activity kit (Cavidi, Uppsala, Sweden) according to the manufacturer’s instructions. A poly-A-coated plate was incubated with the reaction bufferfor up to 1 h at 33°C. Then, a mixture of the virus preparation (see virus expression) and 25 μM of the test compounds or an inhibitor control (nevirapin) were added to the RT assay mixture and incubated overnight at 33°C. The plate was washed, exposed to the provided tracer for 90 min at 33°C and washed again, before the provided substrate was added to quantify the RT reaction that took place. The plate was incubated in the dark for 30 min and subsequently read at 405 nm in a Labsystem Multiskan RC (Artisan Technology Group, Champaign, IL, USA).

[3] = molecular target: T2, HIV-1 reverse transcriptase; set-up: method as in PMID 1376314; conditions: template poly rC.dG versus other templates ref 38; cited from earlier work
HIV-1 = assay: Infectivity assay in TZM-bl cells (luciferase); conditions: 10 μM, 40 h
Description: TZM-bl cells (1 x 10^5) were infected with diluted virus suspension (see virus expression) in a total volume of 0.2 ml DMEM medium in the presence of the compounds or an inhibitor control (nevirapine). After 40 h at 37°C, the luminescence was assayed and quantified in a Luminoskan Ascent (Thermo Labsystems, Schwerte, Germany) for luciferase activity using the OneGlo luciferase assay system (Promega, Nacka, Sweden).

Row | SMILES | reduction of gp120 disulfide bonds, % of DTT (set at 100%) (TrxR1) | inhibition of syncytium formation [1] | CD4 counts (HIV; HIV-infected patients ref 9) | plasma HIV-RNA counts (HIV; HIV-infected patients treated for rheumatoid arthritis ref 9) | inhibition of RT polymerase activity [2] | better inhibition efficacy with poly rC.dG than other templates [3] | inhibition of luminescence signal (HIV infection of TZM-bl) (HIV-1)
1 | CC(=O)OC[C@H]1O[C@@H]([S-])[C@H](OC(C)=O)[C@@H](OC(C)=O)[C@@H]1OC(C)=O.CCP(CC)CC.[Au+] [auranofin] | 6–10% | failed to inhibit syncytium formation | increased the CD4 counts | lowered |  |  | 
2 | Cc1ccnc2c1NC(=O)c1cccnc1N2C1CC1 [nevirapine] |  |  |  |  | pronounced, however not complete inhibitory activity | ~ 10 fold | full inhibition
